From patent US11254688B2 (Boehringer Ingelheim International GmbH, priority 2018, dated 2022) come the findings set out here.

Counter-ions that a name gives are not always drawn.

What is called IC50 is the point on the concentration scale where inhibition reaches its midpoint. A low value points to greater potency in that assay.

For the experiment, the target named is T1, hGOAT (Homo sapiens, UniProt Q96T53).
T1 construct: expressed in transfected cells; host or cells: HEK293 (Hek293 hGOAT/PPGhrl Clone #1B8)
T1 sequence (Q96T53 1-435): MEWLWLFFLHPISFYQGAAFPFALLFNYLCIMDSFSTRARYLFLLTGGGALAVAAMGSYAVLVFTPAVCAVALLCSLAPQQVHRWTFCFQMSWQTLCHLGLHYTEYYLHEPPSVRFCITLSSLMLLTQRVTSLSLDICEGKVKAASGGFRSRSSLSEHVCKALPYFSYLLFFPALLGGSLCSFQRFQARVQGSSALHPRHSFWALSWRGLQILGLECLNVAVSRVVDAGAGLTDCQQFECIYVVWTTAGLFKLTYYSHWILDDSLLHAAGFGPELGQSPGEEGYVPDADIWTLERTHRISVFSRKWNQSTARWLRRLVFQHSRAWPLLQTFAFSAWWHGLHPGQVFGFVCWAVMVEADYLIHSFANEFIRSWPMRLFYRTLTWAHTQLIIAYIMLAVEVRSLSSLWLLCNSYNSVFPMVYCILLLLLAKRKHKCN
Nature of the experiment: Determination of hGOAT activity in HEK293 cells after incubation with test compound (acyl-ghrelin ELISA). The following applies: HEK293 cells stably transfected with preproghrelin and human GOAT; octanoate-BSA 100 μM; 5 hours incubation; acyl-ghrelin in medium by ELISA; 8 compound concentrations. The experiment is classed as cell-based. Here is the method: Determination of hGOAT Activity in HEK293 Cells after Incubation with Test Compound
HEK293 cells stably transfected with two expression vectors, one coding for preproghrelin cDNA and a second for the expression of human GOATcDNA are used as a cellular model. After feeding the cells with octanoic acid for 5 hours, acyl-ghrelin is measured in cell culture medium by an ELISA procedure.
Cellline: Hek293 hGOAT/PPGhrl Clone #1B8Sodium octanoate, Sigma, Cat.-No. C5038
BD Poly-D-Lysin 384-well Plates, black-clear polystyrene BD Bioscience Cat.-No. […] ELISA human acylated Ghrelin Kit purchased from Bertin Pharman (detailed composition of buffers e.g. wash-puffer, ELISA buffer not known)
Cells are plated with a density of 5000 cells/well in 384-well poly-D-lysin plates and incubated for 1 day at 37° C., 5% CO2 in DMEM medium, 10% FCS, 1×NEAA, Puromycin (0.5 μg/ml) and G418 (1 mg/ml). Then the medium is changed to a identical medium without FCS and containing Octanoate-BSA (final concentration 100 μM each) and compound in DMSO (final DMSO concentration 0,3%). After incubation for 5 hours acylghrelin in the medium is measured by ELISA.
The medium sample is diluted 1:25 in Elisa buffer, a 25 μl aliquot is transferred to a 384-well ELISA plate previously washed 4 times with 100 μL wash buffer, and 25 μl tracer-solution is added. After incubation overnight (˜20 h) at 4° C. temperature the plate is washed 4 times with 100 μl wash-buffer per well. Finally 50 μl Ellman's reagent is added to each well and the plate is incubated in the dark for 20 minutes. The absorbance is measured at 405 nm in an Envision multilabel reader and the amount of acylated ghrelin is calculated according to a acylated ghrelin standard curve provided in the same plate.
The analysis of the data is performed by calculation of the percentage of acyl-ghrelin produced in the presence of test compound compared to the amount of acyl-ghrelin produced in the vehicle control samples. An inhibitor of the GOAT enzyme will give values between 100% CTL (no inhibition) and 0% CTL (complete inhibition).
IC50 values are calculated with Assay Explorer or other suited software based on curve fitting of results of 8 different compound concentrations.
(In general: An ELISA detects its analyte on a solid surface through an enzyme-linked reagent.)
`Cc1nc2nonc2c(N)c1Cc1ccc(Cl)c(C(N)=O)c1` [Compound 15.3, 5-({7-Amino-5-methyl-[1,2,5]oxadiazolo[3,4-b]pyridin-6-yl}methyl)-2-chlorobenzamide]: inhibition was half-maximal at 1.58 nM (IC50).
To `Cc1nc2nonc2c(N)c1Cc1ccc(C(=O)NCc2ccn(C)n2)cc1` [Compound 14.4, 4-({7-Amino-5-methyl-[1,2,5]oxadiazolo[3,4-b]pyridin-6-yl}methyl)-N-[(1-methyl-1H-pyrazol-3-yl)methyl]benzamide] belongs 2.25 nM.
Consider `COC(=O)c1ccc(Cc2c(C)nc3nonc3c2N)cc1` [Compound 2.10, Methyl 4-({7-amino-5-methyl-[1,2,5]oxadiazolo[3,4-b]pyridin-6-yl}methyl)benzoate], for which the half-inhibitory concentration (IC50) came to 0.132 nM. This IC50 is about 17-fold lower than that of the compound before.
As for `Cc1nc2nonc2c(N)c1Cc1cnc(OC(F)F)c(C#N)c1` [Compound 4.49, 5-({7-Amino-5-methyl-[1,2,5]oxadiazolo[3,4-b]pyridin-6-yl}methyl)-2-(difluoromethoxy)pyridine-3-carbonitrile], the figure is 35.7 nM; as for `Cc1nc2nonc2c(N)c1Cc1ccc(C(=O)NCC2CN(C)CCO2)cc1` (stereo not drawn) [Compound 14.3, 4-({7-Amino-5-methyl-[1,2,5]oxadiazolo[3,4-b]pyridin-6-yl}methyl)-N-[(4-methylmorpholin-2-yl)methyl]benzamide], 2.93 nM; as for `Cc1nc2nonc2c(N)c1Cc1ccc(Cl)cc1` [Compound 22.1, 6-[(4-Chlorophenyl)methyl]-5-methyl-[1,2,5]oxadiazolo[3,4-b]pyridin-7-amine], 0.432 nM.
As for `Cc1nc2nonc2c(N)c1Cc1cc(F)c(F)c(F)c1` [Compound 4.52, 5-Methyl-6-[(3,4,5-trifluorophenyl)methyl]-[1,2,5]oxadiazolo[3,4-b]pyridin-7-amine], the figure is 1.59 nM.
In turn, `Cc1nc2nonc2c(N)c1Cc1ccnc(C(F)(F)F)c1` [Compound 4.40, 5-Methyl-6-{[2-(trifluoromethyl)pyridin-4-yl]methyl}-[1,2,5]oxadiazolo[3,4-b]pyridin-7-amine] yielded an IC50 of 2.21 nM.
On to `Cc1nc2nonc2c(N)c1C(=O)c1ccc(C(F)(F)F)cc1` [Compound 3.1, 5-Methyl-6-[4-(trifluoromethyl)benzoyl]-[1,2,5]oxadiazolo[3,4-b]pyridin-7-amine], for which half-maximal inhibition (IC50) required 5.83 nM.
To `Cc1nc2nonc2c(N)c1Cc1ccc(O)cc1` [Compound 10.1, 4-(7-Amino-5-methyl-[1,2,5]oxadiazolo[3,4-b]pyridin-6-ylmethyl)-phenol] belongs 0.594 nM.
As for `Cc1nc2nonc2c(N)c1Cc1ccc(F)cc1` [Compound 4.50, 6-[(4-Fluorophenyl)methyl]-5-methyl-[1,2,5]oxadiazolo[3,4-b]pyridin-7-amine], the figure is 0.751 nM; as for `Cc1nc2nonc2c(N)c1Cc1cccn2cnnc12` [Compound 4.11, 5-Methyl-6-({[1,2,4]triazolo[4,3-a]pyridin-8-yl}methyl)-[1,2,5]oxadiazolo[3,4-b]pyridin-7-amine], 3.42 nM.
Consider `Cc1nc2nonc2c(N)c1C(=O)c1ccc(OC(F)(F)F)cc1` [Compound 22.2, 5-Methyl-6-[4-(trifluoromethoxy)benzoyl]-[1,2,5]oxadiazolo[3,4-b]pyridin-7-amine], for which the IC50 was 2.49 nM.
To `Nc1c(Cc2ccc(C(F)(F)F)cc2)c(Br)nc2nonc12` [Compound 24.1, 5-Bromo-6-{[4-(trifluoromethyl)phenyl]methyl}-[1,2,5]oxadiazolo[3,4-b]pyridin-7-amine] belongs 0.475 nM.
Compound `Cc1nc2nonc2c(N)c1Cc1cccc(C#N)c1` [Compound 4.36, 3-(7-Amino-5-methyl-[1,2,5]oxadiazolo[3,4-b]pyridin-6-ylmethyl)-benzonitrile] showed an IC50 of 5.8 nM.
As for `Cc1nc2nonc2c(N)c1Cc1ccc(C(=O)NCc2cnccn2)cc1` [Compound 14.8, 4-({7-Amino-5-methyl-[1,2,5]oxadiazolo[3,4-b]pyridin-6-yl}methyl)-N-[(pyrazin-2-yl)methyl]benzamide], the figure is 3.64 nM; as for `Cc1nc2nonc2c(N)c1Cc1ccc(Cl)nc1` [Compound 4.18, 6-[(6-Chloropyridin-3-yl)methyl]-5-methyl-[1,2,5]oxadiazolo[3,4-b]pyridin-7-amine], 1.65 nM.
As for `Nc1c(Cc2ccc(C(F)(F)F)cc2)c(C(F)F)nc2nonc12` [Compound 24.5, 5-(Difluoromethyl)-6-{[4-(trifluoromethyl)phenyl]methyl}-[1,2,5]oxadiazolo[3,4-b]pyridin-7-amine], the figure is 0.289 nM; as for `Cc1nc2nonc2c(N)c1Cc1ccc(OC2CCC2)nc1` [Compound 4.17, 6-[(6-Cyclobutoxypyridin-3-yl)methyl]-5-methyl-[1,2,5]oxadiazolo[3,4-b]pyridin-7-amine], 0.371 nM.
To `Cc1nc2nonc2c(N)c1Cc1ccc(Cl)nc1C(F)F` [Compound 25.1, 6-{[6-Chloro-2-(difluoromethyl)pyridin-3-yl]methyl}-5-methyl-[1,2,5]oxadiazolo[3,4-b]pyridin-7-amine] belongs 3.5 nM.
Turning to `Cc1nc2nonc2c(N)c1Cc1ccc(C#N)c(OCC(F)F)c1` [Compound 21.2, 4-({7-Amino-5-methyl-[1,2,5]oxadiazolo[3,4-b]pyridin-6-yl}methyl)-2-(2,2-difluoroethoxy)benzonitrile], the IC50 is 0.176 nM.
`Cc1nc2nonc2c(N)c1Cc1ccc(Cl)nc1C(F)(F)F` [Compound 25.3, 6-{[6-Chloro-2-(trifluoromethyl)pyridin-3-yl]methyl}-5-methyl-[1,2,5]oxadiazolo[3,4-b]pyridin-7-amine] yielded an IC50 of 7.36 nM.
As for `Cc1nc2nonc2c(N)c1Cc1ccc(-n2cccn2)nc1` [Compound 20.2, 5-Methyl-6-{[6-(1H-pyrazol-1-yl)pyridin-3-yl]methyl}-[1,2,5]oxadiazolo[3,4-b]pyridin-7-amine Trifluoro-Acetic Acid Salt], the figure is 3.24 nM.
As for `Cc1nc2nonc2c(N)c1Cc1ccc(C(=O)NC2CCOCC2)cc1` [Compound 14.5, 4-({7-Amino-5-methyl-[1,2,5]oxadiazolo[3,4-b]pyridin-6-yl}methyl)-N-(oxan-4-yl)benzamide], the figure is 2.37 nM.
On to `Nc1c(Cc2ccc(C(F)(F)F)cc2)c(C(F)(F)F)nc2nonc12` [Compound 9.1, 5-(Trifluoromethyl)-6-{[4-(trifluoromethyl)phenyl]methyl}-[1,2,5]oxadiazolo[3,4-b]pyridin-7-amine], for which the half-maximal inhibitory concentration (IC50) was found to be 9.47 nM.
As for `Cc1nc2nonc2c(N)c1Cc1cc(I)ncc1C(F)(F)F` [Compound 4.37, 6-{[2-Iodo-5-(trifluoromethyl)pyridin-4-yl]methyl}-5-methyl-[1,2,5]oxadiazolo[3,4-b]pyridin-7-amine], the figure is 0.534 nM.
To `Cc1nc2nonc2c(N)c1Cc1ccc(S(C)(=O)=O)cc1` [Compound 2.12, 6-[(4-Methanesulfonylphenyl)methyl]-5-methyl-[1,2,5]oxadiazolo[3,4-b]pyridin-7-amine] belongs 0.49 nM; to `Cc1nc2nonc2c(N)c1Cc1ccc(Br)nc1` [Compound 4.29, 6-[(6-Bromopyridin-3-yl)methyl]-5-methyl-[1,2,5]oxadiazolo[3,4-b]pyridin-7-amine], 1.27 nM; to `N#Cc1nc2nonc2c(N)c1Cc1ccc(C(F)(F)F)cc1` [Compound 24.4, 7-Amino-6-{[4-(trifluoromethyl)phenyl]methyl}-[1,2,5]oxadiazolo[3,4-b]pyridine-5-carbonitrile], 2.42 nM.
`Nc1c(Cc2ccc(C(F)(F)F)cc2)c(CO)nc2nonc12` [Compound 24.2, (7-Amino-6-{[4-(trifluoromethyl)phenyl]methyl}-[1,2,5]oxadiazolo[3,4-b]pyridin-5-yl)methanol] showed an IC50 of 5.73 nM. Against the preceding compound, the IC50 is about 2.4-fold higher.
